Assay results reported in patent publication US20260335294A1, “TREATING CONGENITAL DISORDERS OF GLYCOSYLATION” (Mayo Foundation for Medical Education and Research, priority 2022, published 2026).
Marks after values point to notes of the source that are not given here.

Columns and labels:
PMM2-CDG patients [1] = experiment: Urine polyols (sorbitol, mannitol) in patients on epalrestat; type: in vivo, human; details: for Urine Sorbitol: normal <5; for Urine Mannitol: normal < 20
Description: (§1) The primary objective of the study was to assess the efficacy and safety of epalrestat treatment in 3 PMM2-CDG pediatric subjects prior to a planned Phase III clinical trial (Oral epalrestat therapy in Pediatric Subjects with PMM2-CDG, NCT04925960). The secondary objective was to assess the ability of epalrestat to improve clinically relevant aspects of PMM2-CDG such as increased urine polyols (sorbitol, mannitol), abnormal glycosylation (carbohydrate deficient transferrin), abnormal coagulation (ATIII=antithrombin III), impaired liver function (ALT=Alanine Transaminase, AST=Aspartate Transaminase), neurologic function (Brief Ataxia Rating Scale=BARS), severity of phenotype (Nijmegen Pediatric CDG Rating Scale=NPCRS). The ability of epalrestat to inhibit polyol production was monitored by evaluating urine polyol levels (sorbitol, mannitol), which are elevated in PMM2-CDG. Next, carbohydrate deficient transferrin, which is abnormal in PMM2-CDG, was evaluated in order to assess improvement of glycosylation following epalrestat treatment. CDT mono-oligo/dioligo ratio and a-oligo/dioligo ratio are used to evaluate glycosylation abnormalities. Transferrin normally occurs with two glycan chains (di-oligo). In the case of glycosylation abnormalities, glycan chains are missing (A-oligo transferrin has no glycan chains, mono-oligo has one glycan chain, di-oligo has two glycan chains). The higher ratio of a-oligo/di-oligo and mono-oligo/di-oligo indicate glycosylation abnormalities are present. Therefore, improvement in a-oligo/di-oligo and mono-oligo/di-oligo ratios can be used to monitor improvement or worsening of glycosylation status. Changes in the liver enzymes AST, ALT, which are frequently elevated in PMM2-CDG, were monitored both as part of a safety study and as part of monitoring clinical improvement in coagulation. Neurologic improvement was assessed by modified BARS scores in 2 patients (3rd patient was not eligible for the test due to age at the start of the trial). NPCRS was assessed at every visit to assess changes in the severity of the patients' phenotype. Additionally, the frequency of adverse events, changes in vital signs, complete blood count, and changes in BMI were monitored.
(§2) Two patients were started on epalrestat on single patient investigational new drug (IND) (P5 IRB: 19-010017; IND #145262; P6 Protocol PMM2-CDG-001/A). Epalrestat was initiated on the parents' own initiative in the third patient (P7). Two patients were in their second year of epalrestat treatment, while the third, was in the 3rd year of treatment. Physical, neurological, and biochemical examinations were performed in 3 PMM2-CDG patients at baseline, and at every three months after the start of the epalrestat treatment. Patients underwent NPCRS phenotype severity assessment and biological sampling at every visit. Epalrestat (Ono Pharmaceuticals, Osaka, Japan) was taken orally 3 times per day (TID) before meals in a divided dose, with dosage escalation throughout the treatment. The pharmacological profile of epalrestat was as described elsewhere (Ligezka et al, Ann. Neurol., 90(6):887-900 (2021)). The starting dosage in P5 and P6 was 0.8 mg/kg/day, while P7 was started on 0.5 mg/kg/day due to their young age. P7 dosage was increased to 0.8 mg/day after a month, once safety was established. Blood and urine samples were collected routinely. Urine polyols, carbohydrate deficient transferrin (CDT), anti-thrombin III (ATIII), liver enzymes (ALT, AST), and complete blood count (CBC) were performed. Modified Brief Ataxia Rating Scale was used to assess ataxia in the 2 patients (P5, P6; P7 was not eligible for the test due to age). The modified BARS scale included Archimedes spiral test, but not the abnormalities of the ocular pursuit system and the scale range was 0-54. Goal attainment scale (GAS) was administered as described per study protocol (ClinicalTrials.gov Identifier: NCT04199000). […]

PMM2-CDG patients [2] = experiment: Carbohydrate deficient transferrin (CDT) in patients on epalrestat; type: in vivo, human; details: for CDT a-oligo/di-oligo ratio: C < 0.011; for CDT mono-oligo/di-oligo ratio: C < 0.06
Description: as §1, §2

[3] = tested on: patient fibroblasts and healthy controls; experiment: Quantification of NADPH and NADP; type: cell-based, human; details: 10 μM, 24 h
Description: Fibroblasts from three patient fibroblasts (P2, P4, P5) and two healthy controls were plated on day 1. The next day medium was changed. The cells were grown in the presence and absence of […] epalrestat for another 24 hours. The medium was then removed, cells were washed with cold saline solution (0.9% NaCl) and 250 μL of extraction buffer (50% MeOH, 30% acetonitrile, 20% H2O Tris-HCl pH 7.6) was added to the cells. The metabolites were precipitated overnight at −80 °C, samples were centrifugated at 20,000 rpm, 20 minutes, 4 °C, and supernatant was transferred to a fresh vial. Pellets were used for determination of protein concentration. Supernatant containing metabolites was analyzed by LC/MS less than 24 hours after the initial collection to avoid degradation of NADPH into NADP. Relative abundance of NADP and NADPH was obtained. […]

[4] = P6, Baseline column: first available results 3 months after starting treatment, 0.8 mg/kg day
[5] = P7, Baseline column: first available results 3 months after starting treatment, 0.5, 0.8 mg/kg day

`CC(/C=C1\SC(=S)N(CC(=O)O)C1=O)=C\c1ccccc1` [epalrestat] was tested, and the “Urine Sorbitol” value (PMM2-CDG patients [1]; P5, 12 months, 1.5 mg/kg day, baseline 19.9) was 10.7 mmol/mol Cr, the “Urine Mannitol” value (PMM2-CDG patients [1]; P5, 12 months, 1.5 mg/kg day, baseline 648.6) was 32.6 mmol/mol Cr and the “Urine Sorbitol” value (PMM2-CDG patients [1]; P5, 24 months, 2 mg/kg day, baseline 19.9) was 7.5 mmol/mol Cr. The “Urine Mannitol” value (PMM2-CDG patients [1]; P5, 24 months, 2 mg/kg day, baseline 648.6) was 45.3 mmol/mol Cr, the “Urine Sorbitol” value (PMM2-CDG patients [1]; P5, 28 months, 3 mg/kg day, baseline 19.9) was 7.86 mmol/mol Cr and the “Urine Mannitol” value (PMM2-CDG patients [1]; P5, 28 months, 3 mg/kg day, baseline 648.6) was 93.19 mmol/mol Cr. For the same molecule, the “urine mannitol during treatment” value (PMM2-CDG patients [1]; P5, underwent a fructose loading test) was “A fluctuation in mannitol”, the urine polyol levels (PMM2-CDG patients [1]; P5-P7, words) was “decreased” and the “urine polyol levels during treatment” value (PMM2-CDG patients [1]; P5-P7, words) was “remained mostly stable”. The “Urine Sorbitol” value (PMM2-CDG patients [1]; P6, 12 months, 1.5 mg/kg day) was 12.81 mmol/mol Cr, the “Urine Mannitol” value (PMM2-CDG patients [1]; P6, 12 months, 1.5 mg/kg day) was 14.77 mmol/mol Cr and the “Urine Sorbitol” value (PMM2-CDG patients [1]; P6, 18 months, 3 mg/kg day) was 9 mmol/mol Cr. The “Urine Mannitol” value (PMM2-CDG patients [1]; P6, 18 months, 3 mg/kg day) was 47 mmol/mol Cr, the “Urine Sorbitol” value (PMM2-CDG patients [1]; [4]) was 50.80# mmol/mol Cr and the “Urine Mannitol” value (PMM2-CDG patients [1]; [4]) was 23.90# mmol/mol Cr. The “Urine Sorbitol” value (PMM2-CDG patients [1]; P7, 12 months, 1.5 mg/kg day, baseline 9.85) was 0.03 mmol/mol Cr, the “Urine Mannitol” value (PMM2-CDG patients [1]; P7, 12 months, 1.5 mg/kg day, baseline 10.37) was 1.89 mmol/mol Cr and the CDT a-oligo/di-oligo ratio (PMM2-CDG patients [2]; P5, 12 months, 1.5 mg/kg day, baseline 0.005) was 0.003. It also gave a CDT mono-oligo/di-oligo ratio (PMM2-CDG patients [2]; P5, 12 months, 1.5 mg/kg day, baseline 0.09) of 0.06, a CDT a-oligo/di-oligo ratio (PMM2-CDG patients [2]; P5, 24 months, 2 mg/kg day, baseline 0.005) of 0.010 and a CDT mono-oligo/di-oligo ratio (PMM2-CDG patients [2]; P5, 24 months, 2 mg/kg day, baseline 0.09) of 0.09. For the same molecule, the CDT a-oligo/di-oligo ratio (PMM2-CDG patients [2]; P5, 28 months, 3 mg/kg day, baseline 0.005) was 0.08, the CDT mono-oligo/di-oligo ratio (PMM2-CDG patients [2]; P5, 28 months, 3 mg/kg day, baseline 0.09) was 0.07 and the CDT (PMM2-CDG patients [2]; P5, words) was “Normalization of CDT”. The CDT a-oligo/di-oligo ratio (PMM2-CDG patients [2]; P6, 12 months, 1.5 mg/kg day, baseline 0.196) was 0.111, the CDT mono-oligo/di-oligo ratio (PMM2-CDG patients [2]; P6, 12 months, 1.5 mg/kg day, baseline 0.69) was 0.43 and the CDT a-oligo/di-oligo ratio (PMM2-CDG patients [2]; P6, 18 months, 3 mg/kg day, baseline 0.196) was 0.105. For the same molecule, the CDT mono-oligo/di-oligo ratio (PMM2-CDG patients [2]; P6, 18 months, 3 mg/kg day, baseline 0.69) was 0.47, the CDT (PMM2-CDG patients [2]; P6, 18 months, escalating doses, words) was “significant improvement in CDT with a steady trend towards normalization” and the CDT a-oligo/di-oligo ratio (PMM2-CDG patients [2]; P7, 12 months, 1.5 mg/kg day) was 1.033. For the same molecule, the CDT mono-oligo/di-oligo ratio (PMM2-CDG patients [2]; P7, 12 months, 1.5 mg/kg day) was 1.58, the CDT a-oligo/di-oligo ratio (PMM2-CDG patients [2]; [5]) was 0.919# and the CDT mono-oligo/di-oligo ratio (PMM2-CDG patients [2]; [5]) was 1.60#. The CDT (PMM2-CDG patients [2]; P7, one-year mark, words) was “slight improvement”, the CDT (PMM2-CDG patients [2]; overall, words) was “improvement” and the NADP abundance [3] was “decreased”. The NADPH abundance [3] was “increased” and the NADPH/NADP ratio ([3]; PMM2-CDG n=3, control n=2) was “increased”.
